pIC50: −log10 of the molar value.
Each compound was assayed on HaCaT cells (assay: Proliferation assay (ATP-lite bioluminescent assay of intracellular ATP content)). Conditions: Homo sapiens, 144 h; inhibition of proliferation of HaCaT cells, 6 days incubation, 10% FBS, absolute IC50, mean of 3 experiments.
Format: cell-based
Experimental: Human adult low calcium high temperature (HaCaT) cells are spontaneously transformed human keratinocytes that have the characteristics of basal epidermal keratinocytes (Boukamp et at. J Cell Biol 106:761-771, 1988) This line can be used as in vitro model for highly proliferative epidermis (Ockenfels et at., Arch Dermatol Res 287:301-309, 1995)
HaCaT cells exponentially growing were plated in clear bottom, white walled, 96-well plates at a density of 5000 cells/well in 100 µL Dulbecco's modified Eagle's medium (DMEM) containing 1% fetal bovine serum (FBS), and incubated overnight at 37 °C, 5% CO2. Next day, media in each well was replaced with 50 µL growth medium containing 10% FBS. 50 µL of compounds at two-fold the desired concentration in growth medium containing 2% dimethyl sulfoxide (DMSO) were added to the wells. Six wells were replaced with fresh 100 µL of medium containing 1% FBS and 1% DMSO and were used as a control of no proliferation. Six other wells were replaced with fresh 100 µL of medium containing 10% FBS and 1% DMSO and were used as a control of top proliferation. Each compound concentration was tested in triplicate and ranged from 100 µM to 0.4 µM in half-log serial dilutions. Plates were incubated at 37°C 5% CO2 for 6 consecutive days. On the day of the assay, media was removed and replaced with 100 µL of phosphate buffered saline (PBS). A bioluminescent assay was performed to assess the intracellular adenosine-5'-triphosphate (ATP) content following the manufacturer instructions (ATP-lite, Perkin Elmer, Belgium). Results were expressed as a % of inhibition of proliferation in relation to the top and bottom proliferation wells. Absolute IC50 corresponded to the concentration of compound that caused 50% inhibition of proliferation. Table 1 depicts the mean and the standard deviation of 3 experiments for each indicated compound/combination.

First: O=C(O)c1cc(C2CC2)ccc1Nc1cnc(-c2c(F)cccc2F)nc1 [Example 2, 5-cyclopropyl-2-(2-(2,6-difluorophenyl)pyrimidin-5-ylamino)benzoic acid]
Second: COc1cccc(-c2cc(F)c(Nc3ncccc3C(=O)O)c(F)c2)c1 [Example 1, 2-(3,5-difluoro-3'-methoxybiphenyl-4-ylamino)nicotinic acid]
The pIC50 of the first is 0.35 log units higher: 6.59 for the first, 6.24 for the second. The first is the more potent here.

Compound `CC(O)=C(C#N)C(=O)Nc1ccc(C(F)(F)F)cc1` [Example 3, 2-Butenamide, 2-cyano-3-hydroxy-N-[4-(trifluoromethyl)phenyl]-, reference compound] has a pIC50 of 4.82.
